# Test results from US4547509A, “5,6,7-Quinoline carbanilates and method of treating ischemic heart disease therewith” (USV Pharmaceutical Corp., priority 1983, dated 1985).
# Key:
# Canine cardiac lipases [1] = experiment: Myocardial Lipase Assay; format: biochemical; settings: 100 μM compound, 3.0% DMSO, triolein emulsion, pH 6.8, tested in duplicate
# Procedure: All compounds were dissolved in DMSO (final concentration 3.0%) and tested in duplicate at a concentration of 100 μm. Canine cardiac lipases were obtained by extracting washed heart membranes with buffer plus heparin and a small amount of Triton X-100 detergent. Because these enzymes are only active at an oil-water interface, the enzyme reaction is run in an oil-water emulsion that contains triolein substrate, Tris buffer (50 mM, pH 6.8) and a small amount of bovine serum albumin (0.5%) added to stabilize the emulsion. A small amount of tritiated triolein was added to the unlabelled triolein substrate. Tritium-labelled oleic acid released by the lipases was extracted into hexane, separated from unreacted triolein and counted in a scintillation counter. Inhibitory agents reduce the amount of radioactivity appearing in the free fatty acid fraction isolated in the extraction procedure.
# rat adipocyte lipolysis = experiment: Rat Adipocyte Assay (epinephrine-stimulated lipolysis, glycerol release); format: cell-based; settings: epinephrine 3 μM plus methylisobutylxanthine 10 μM, 1 hour at 37° C.; for inhibition at 30 µM: 30 μM compound, read-out: Adipocyte % Inhib. at 30 μM; for IC50: read-out: Adipocyte I50; for inhibition at 200 µM: 200 μM compound, read-out: Adipocyte % Inhib. at 200 μM
# Procedure: Abdominal fat pads were removed from male rats weighing 200-250 grams and placed in Krebs-bicarbonate buffer gassed with 95% O2 /5% CO2. The fat pads were digested with collagenase for 1 hour at 37° C., washed twice with Krebs-bicarbonate buffer and distributed among a set of 20 ml plastic counting vials. Two such vials received only buffer and cells (4 ml) but no angonists or antagonists. The remaining vials received epinephrine (3 μM) plus the phosphodiesterase inhibitor methylisobutylxanthine (10 μM). Test compounds were dissolved in DMSO or water to a concentration of 20 mM or 40 μl was added to the buffer plus cells in the counting vials. The final compound concentration for routine screening was 200 μM (final concentration of DMSO=1%).
# The cells were incubated for 1 hour at 37° C. under 95% O2 /5% CO2 atmosphere. The incubation was stopped by placing the vials in crushed ice. The cells and medium were transferred to test tubes, centrifuged and the cell layer removed by aspiration. The aqueous phase was assayed for glycerol using the enzyme glycerol dehydrogenase.
# The glycerol dehydrogenase assay for glycerol depends on the enzyme catalyzed conversion of glycerol to glyceraldehyde and NAD to NADH. The assay can detect as little as 5-10 nanomoles of glycerol. The aqueous phase, following removal of cells, usually contained about 50 to 80 nanomoles of glycerol per 300 μl of assayed sample if no inhibitory activity was present. Samples from the control tubes (no agonist) usually contained 0-5 nanomoles of glycerol per 300 μl of sample.
# Canine cardiac lipases [2] = experiment: Myocardial Lipase Assay; format: biochemical; settings: triolein emulsion, pH 6.8; read-out: Lipase I50
smiles,measurement,setting,value
COc1ccc(NC(=O)Oc2ccc3cccnc3c2)cc1 [Example 1],Lipase % Inh. at 100 μM,Canine cardiac lipases [1],60%
same,inhibition at 30 µM,rat adipocyte lipolysis,0%
"COc1ccc(NC(=O)Oc2ccc3ncccc3c2)cc1 [Example 2, 6-quinolyl-4-methoxy carbanilate]",Lipase % Inh. at 100 μM,Canine cardiac lipases [1],64%
same,inhibition at 30 µM,rat adipocyte lipolysis,8%
"COc1ccc(NC(=O)Oc2cccc3ncccc23)cc1 [Example 3, 5-quinolyl-4-methoxy carbanilate]",Lipase % Inh. at 100 μM,Canine cardiac lipases [1],63%
same,inhibition at 30 µM,rat adipocyte lipolysis,1%
"COc1ccccc1NC(=O)Oc1ccc2cccnc2c1 [Example 4, 7-quinolyl-2-methoxy carbanilate]",IC50,rat adipocyte lipolysis,80 µM
same,IC50,Canine cardiac lipases [2],48 µM
"COc1ccccc1NC(=O)Oc1ccc2ncccc2c1 [Example 5, 6-quinolyl-2-methoxy carbanilate]",IC50,rat adipocyte lipolysis,30 µM
same,IC50,Canine cardiac lipases [2],42 µM
"COc1ccccc1NC(=O)Oc1cccc2ncccc12 [Example 6, 5-quinolyl-2-methoxy carbanilate]",inhibition at 200 µM,rat adipocyte lipolysis,31%
same,IC50,Canine cardiac lipases [2],48 µM
"COc1cccc(NC(=O)Oc2ccc3cccnc3c2)c1 [Example 7, 7-quinolyl-3-methoxy carbanilate]",Lipase % Inh. at 100 μM,Canine cardiac lipases [1],52%
same,inhibition at 200 µM,rat adipocyte lipolysis,25%
"CCOC(=O)c1ccc(NC(=O)Oc2ccc3cccnc3c2)cc1 [Example 8, 7-quinolyl-4-carbethoxy carbanilate]",Lipase % Inh. at 100 μM,Canine cardiac lipases [1],46%
same,inhibition at 200 µM,rat adipocyte lipolysis,18%
"O=C(Nc1ccccc1Cl)Oc1ccc2cccnc2c1 [Example 9, 7-quinolyl-2-chloro carbanilate]",Lipase % Inh. at 100 μM,Canine cardiac lipases [1],6%
"Cc1ccccc1NC(=O)Oc1ccc2cccnc2c1 [Example 10, 7-quinolyl-2-methyl carbanilate]",Lipase % Inh. at 100 μM,Canine cardiac lipases [1],45%
same,inhibition at 200 µM,rat adipocyte lipolysis,20%
"O=C(Nc1ccccc1C(F)(F)F)Oc1ccc2cccnc2c1 [Example 11, 7-quinolyl-2-trifluoromethyl carbanilate]",Lipase % Inh. at 100 μM,Canine cardiac lipases [1],12%
"COc1ccc(CCNC(=O)Oc2ccc3cccnc3c2)cc1 [Example 12, 7-quinolyl-4-methoxy phenethyl carbamate]",Lipase % Inh. at 100 μM,Canine cardiac lipases [1],97%
same,inhibition at 100 µM,"rat adipocyte lipolysis; 100 μM compound, read-out: Adipocyte % Inhib. at 100 μM",84%
